For assay [1], the target named is T1, HMG-CoAR (catalytic domain) (Homo sapiens, UniProt P04035).
T1 construct: finally the HMG-CoAR (cata- lytic domain) (2 µL); purchased Sigma-Aldrich
T1 sequence (P04035 426-888 limits assumed): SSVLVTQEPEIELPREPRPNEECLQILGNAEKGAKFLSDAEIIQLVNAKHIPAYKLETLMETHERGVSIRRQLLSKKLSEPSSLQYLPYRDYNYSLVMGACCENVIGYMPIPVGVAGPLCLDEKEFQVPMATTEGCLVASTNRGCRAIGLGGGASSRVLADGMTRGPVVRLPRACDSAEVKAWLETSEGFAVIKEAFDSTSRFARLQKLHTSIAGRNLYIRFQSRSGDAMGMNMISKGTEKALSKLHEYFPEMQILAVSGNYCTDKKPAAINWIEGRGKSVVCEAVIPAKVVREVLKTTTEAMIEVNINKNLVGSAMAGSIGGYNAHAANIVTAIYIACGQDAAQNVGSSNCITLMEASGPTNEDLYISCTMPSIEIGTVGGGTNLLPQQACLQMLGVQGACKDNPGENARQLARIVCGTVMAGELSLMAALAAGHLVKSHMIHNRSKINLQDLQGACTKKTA
Conditions: parent peptide; read-out: IC50, HMG-CoAR activity (P5); cited from earlier work.

The next assay relates to PCSK9. Also noted: method as in 3 sources, ref 49 = [49]; PMID 35011066; doi:10.3390/nu14010193; 49. Macchi C. Greco M.F. Ferri N. Magni P. Arnoldi A. Corsini A. Sirtori C.R. Ruscica M. Lammi C. Impact of Soy β-Conglycinin Peptides on PCSK9 Protein Expression in HepG2 Cells Nutrients 2021 14 193 ||| ref 22 = [22]; doi:10.1016/j.jff.2017.02.009; 22. Zanoni C. Aiello G. Arnoldi A. Lammi C. Investigations on the hypocholesterolaemic activity of […] and LTFPGSAED, two peptides from lupin β-conglutin: Focus on LDLR and PCSK9 pathways J. Fu ||| ref 24 = [24]; PMID 33808034; doi:10.3390/nu13030863; 24. Lammi C. Aiello G. Bollati C. Li J. Bartolomei M. Ranaldi G. Ferruzza S. Fassi E.M.A. Grazioso G. Sambuy Y. Trans-Epithelial Transport, Metabolism, and Biological Activity Assessment of the Multi-. Conditions: through downregulation of HNF-1α; cited from earlier work.

Another assay concerns SREBP-2. Briefly: Western blot, SREBP-2 protein level in HepG2. The assay is classed as cell-based, human. To be noted: 50 µM, 24 h. On the procedure: A total of 1.5 × 10^5 HepG2 cells/well (24-well plate) were treated with 50 μM of P5 and P5 analogs for 24 h. Immunoblotting experiments were performed using optimized protocol. See Supplementary Materials for further details.
PBS for 1.5 h at RT. LDLR primary antibody solution (1:3000 in 5% BSA in PBS, 25 µL/well) was incubated O/N at +4 °C. Subsequently, the primary antibody solution was discarded and each sample was washed 5 times with 100 µL/well of PBS (each wash was for 5 min at RT). Goat anti-rabbit Ig-HRP secondary antibody solution (Santa Cruz) (1:6000 in 5% BSA in PBS, 50 µL/well), was added and incubated 1 h at RT. […] The reaction was stopped with 2 M H2SO4 and then the absorbance at 450 nm was measured using the microplate reader Synergy H1 (Winoo-ski, VT, USA). After the read, cells were stained by adding 1 X Janus Green stain, incubat-ing for 5 min at RT. […]
Afterward 100 µL 0.5 M HCl for well were added and incubated for 10 min. After 10 sec-onds shaking, the OD at 595 nm was measured using the microplate reader Synergy H1 […]
Fluorescent LDL Uptake. […] The degree of LDL uptake was measured using the Synergy H1 fluo-rescent plate reader (Winooski, VT, USA) (excitation and emission wavelengths 540 and 570 nm, respectively). Fluorescent LDL-uptake was finally assessed following optimized […]

The term IC50 denotes the concentration at which inhibition is half-maximal. Regarding “LILPKHSDAD [Peptide P5, natural peptide derived from a peptic lupin protein hydrolysate]”, the IC50 in assay [1] was 147 µM. The “PCSK9 protein levels and secretion (P5, earlier work, words)” value in the assay with PCSK9 is “reduces the PCSK9 protein levels and its secretion”. In the assay with SREBP-2, the “SREBP-2 protein level (words, P5)” value is “upregulation of the SREBP-2 transcription factor level”.

Source of the values: publication PMC8951016, “Computational Design and Biological Evaluation of Analogs of Lupin Peptide P5 Endowed with Dual PCSK9/HMG-CoAR Inhibiting Activity” (Pharmaceutics, 2022).
